The test system of assay [1] is mice (DTH test as per Example 43). The experiment in a line: DTH test, comparison of different routes of administration. Type of assay: in vivo. The method, then:
The mice were sensitized, Day 0, by epicutaneous application of 150 μl of an absolute ethanol-acetone (3:1) solution containing 3% OXA on the shaved abdomen. Treatment with peptides 1 to 41 inclusive, or vehicle (phosphate buffer, pH 7.4, containing a mixture of Buffer A and Buffer B in the proportion 63%:37% B (Buffer A: Na2 HPO4, 0.89 g/100 ml, EDTA 0.05 g/100 ml; Buffer B: NaH2 PO4, 0.69 g/100 ml, EDTA 0.05 g/100 ml) was initiated by oral feeding immediately after sensitization and continued once daily (a.m) until Day 6. Seven days after sensitization, both ears of all mice were challenged on both sides by topical application of 20 μl 1% OXA dissolved in peanut oil. Ear thickness was measured prior to and at 24 hours or 48 hours after challenge using an Oditest spring calliper. Challenges and measurements were performed under light pentobarbital anaesthesia.
The intensity of the DTH reactions was measured according to the method described by van Loveren H., et al. (1984) J. Immunol. Methods 67: 311 and expressed according to the formula: Tt24/48 -Tt0 μm units, where t0, t24 and t48 represent the ear thickness at time 0, +24 hrs or +48 hrs after challenge respectively, in individual tests (T). The results are expressed as the mean +/- S.E.M.. The level of significance between means of the groups is obtained by Student's two-tailed t-test. […]
Peptide (Peptide No. 4-derived from SEQ ID NO:24) was administered to mice (groups of 10) orally and by parenteral injection (intravenous and subcutaneous injection) at doses of from 0.0003 μmol/kg body weight through to 3.0 μmol/kg body weight as per example 43. […] The mean and standard error of the mean for each group of mice (10 per group) was recorded.
Peptide (SEQ ID NO:24, dimerized as shown in Box 36 of Table 1) was administered to mice (groups of 10) at doses of 0.03 μmol/kg body weight and 3.0 μmol/kg body weight. […] The mean and standard error of the mean for each group of mice (10 per group) was calculated.

Assay [2] has as its system rat spontaneously developed mammary carcinoma cells. The experiment in a line: Effects of peptides on tumour growth. Type of assay: in vivo. The conditions noted are these: Wistar rats, subcutaneous mammary carcinoma, gavage once a day, all dose levels tested. As for the experimental part: 10^4 rat spontaneously developed mammary carcinoma cells in isotonic saline and 5% normal syngeneic rat serum were inoculated subcutaneously in the right hindlegs of Wistar rats (8 per group). Tumour size was estimated by palpation and caliper measurements of a first diameter (a), being the largest diameter, and the one (b) perpendicular to the first. The volume of the tumour was calculated using the formula: V=0.4 ab^2.
Tumour volume is given in mm^3 as a median for each group of rats (8 per group).
Drug and control (isotonic saline) were administered by gavage (oesophagealtube) once a day (a.m.) on each of days 4-8 and 11-15 for peptides
i) Gly-Pro-Cys-Cys-Pro-Gly (SEQ ID NO:20; 3 μmol/kg/day); ii) Ala-Pro-Cys-Cys-Val-Pro (SEQ ID NO:21; 0.03 and […]);

[3] abbreviates: 0.03 and 3.0 μmol/kg body weight.

Positions of bridges follow the written chain, without caps; N, C: chain ends. Residues, ends and D or L forms follow the SMILES beside them. Chains are numbered I, II in the order given.

On to `O=C(CNC(=O)[C@@H]1CCCN1)N[C@H]1CSSC[C@@H](C(=O)NCC(=O)N2CCC[C@H]2C(=O)O)NC1=O` [Peptide 4] (H-PGCCGP-OH; disulfide 3-4), for which, in assay [1] (0.0003 to 3.0 μmol/kg body weight, oral vs intravenous and subcutaneous injection), the “immunomodulatory response, oral administration versus other parenteral means” value is listed as “more marked immunomodulatory response”. Take `NCC(=O)N1CCC[C@H]1C(=O)N[C@@H](CS)C(=O)N[C@@H](CS)C(=O)N1CCC[C@H]1C(=O)NCC(=O)O` [Peptide 1, Gly-Pro-Cys-Cys-Pro-Gly] (H-GPCCPG-OH): in assay [2], the “tumour volume compared with the control” value is “marked decrease in tumour volume”.

With `O=C(CNC(=O)[C@@H]1CCCN1)N[C@H]1CSSC[C@H](NC(=O)CNC(=O)[C@@H]2CCCN2)C(=O)N[C@H](C(=O)NCC(=O)N2CCC[C@H]2C(=O)O)CSSC[C@@H](C(=O)NCC(=O)N2CCC[C@H]2C(=O)O)NC1=O` [Peptide 36] (I: H-PGCCGP-OH / II: H-PGCCGP-OH; disulfide I:3-II:3, I:4-II:4), in assay [1] (setting [3]), the “immunomodulatory effect in the DTH test relative to the control” value was “significant immunomodulatory effect” and the “reaction by oral route relative to parenteral routes at the same dosage” value is reported as “stronger reaction”.

For the compound `CC[C@H](C)[C@H](NC(=O)[C@@H](N)C(C)C)C(=O)N[C@H]1CSSC[C@@H](C(=O)N[C@@H](CC(C)C)C(=O)N[C@H](C(=O)O)[C@@H](C)O)NC1=O` [SEQ ID NO:26] (H-VICCLT-OH; disulfide 3-4), the “tumour volume compared with the control” value in assay [2] was “marked decrease in tumour volume”.
